Reference: US10071086B2, “1H-pyrazolo[3,4-b]pyridines and therapeutic uses thereof” (Samumed, LLC, priority 2012, dated 2018)

Legend:
β-catenin = assay: NL-20 β-catenin reporter assay (primary screening assay for IPF); assay type: cell-based; details: transformed human bronchial epithelial cell line NL-20
Description: Compounds of Formulas (I) or (II) were screened in a β-catenin-based reporter assay in a transformed human bronchial epithelial cell line (NL-20).

Wnt pathway = assay: Wnt activity reporter assay (SP5 promoter-luciferase in SW480 cells); assay type: cell-based; details: Homo sapiens, SP5 promoter firefly luciferase reporter, read-out: Wnt inhibition
Summary of the method: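 SW480 cells stably carrying an SP5 promoter (eight TCF/LEF sites)-firefly luciferase reporter were seeded at ~10,000 per well and given half-log compound dilutions from a 10 µM top concentration.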

| Compound | IC50 (β-catenin; NL20) | IC50 (Wnt pathway) | IC50 (β-catenin) |
| --- | --- | --- | --- |
| Nc1cncc(-c2cnc3[nH]nc(-c4nc5c(-c6cccc(F)c6)cncc5[nH]4)c3c2)c1 [Compound 5, 5-(3-(7-(3-Fluorophenyl)-3H-imidazo[4,5-c]pyridin-2-yl)-1H-pyrazolo[3,4-b]pyridin-5-yl)pyridin-3-amine] | 175 nM | 3.9 nM |  |
| CN(C)c1cncc(-c2cnc3[nH]nc(-c4nc5c(-c6cccc(F)c6)cncc5[nH]4)c3c2)c1 [Compound 7, 5-(3-(7-(3-Fluorophenyl)-3H-imidazo[4,5-c]pyridin-2-yl)-1H-pyrazolo[3,4-b]pyridin-5-yl)-N,N-dimethylpyridin-3-amine] | 1900 nM | 6 nM |  |
| CC(C)Nc1cncc(-c2cnc3[nH]nc(-c4nc5c(-c6cccc(F)c6)cncc5[nH]4)c3c2)c1 [Compound 9, 5-(3-(7-(3-Fluorophenyl)-3H-imidazo[4,5-c]pyridin-2-yl)-1H-pyrazolo[3,4-b]pyridin-5-yl)-N-isopropylpyridin-3-amine] | 67 nM | 1.2 nM |  |
| CN1CCN(Cc2cc(F)cc(-c3cncc4[nH]c(-c5n[nH]c6ncc(-c7cccnc7)cc56)nc34)c2)CC1 [Compound 10, 3-(7-(3-Fluoro-5-((4-methylpiperazin-1-yl)methyl)phenyl)-3H-imidazo[4,5-c]pyridin-2-yl)-5-(pyridin-3-yl)-1H-pyrazolo[3,4-b]pyridine] | 247 nM | 263 nM |  |
| CN1CCN(c2cc(F)cc(-c3cncc4[nH]c(-c5n[nH]c6ncc(-c7cccnc7)cc56)nc34)c2)CC1 [Compound 11, 3-(7-(3-Fluoro-5-(4-methylpiperazin-1-yl)phenyl)-3H-imidazo[4,5-c]pyridin-2-yl)-5-(pyridin-3-yl)-1H-pyrazolo[3,4-b]pyridine] | 210 nM | 99 nM |  |
| CN(C)CCNc1cc(F)cc(-c2cncc3[nH]c(-c4n[nH]c5ncc(-c6cccnc6)cc45)nc23)c1 [Compound 12, N1-(3-Fluoro-5-(2-(5-(pyridin-3-yl)-1H-pyrazolo[3,4-b]pyridin-3-yl)-3H-imidazo[4,5-c]pyridin-7-yl)phenyl)-N2,N2-dimethylethane-1,2-diamine] | 310 nM | 21 nM |  |
| CN(C)Cc1cc(F)cc(-c2cncc3[nH]c(-c4n[nH]c5ncc(-c6cccnc6)cc45)nc23)c1 [Compound 14, 1-(3-Fluoro-5-(2-(5-(pyridin-3-yl)-1H-pyrazolo[3,4-b]pyridin-3-yl)-3H-imidazo[4,5-c]pyridin-7-yl)phenyl)-N,N-dimethylmethanamine] | 2030 nM | 138 nM |  |
| CN(C)Cc1cncc(-c2cnc3[nH]nc(-c4nc5c(-c6cccc(F)c6)cncc5[nH]4)c3c2)c1 [Compound 18, 1-(5-(3-(7-(3-Fluorophenyl)-3H-imidazo[4,5-c]pyridin-2-yl)-1H-pyrazolo[3,4-b]pyridin-5-yl)pyridin-3-yl)-N,N-dimethylmethanamine] | 440 nM | 13 nM |  |
| CN(C)Cc1cncc(-c2cnc3[nH]nc(-c4nc5c(-c6cccs6)cncc5[nH]4)c3c2)c1 [Compound 452, N,N-Dimethyl-1-(5-(3-(7-(thiophen-2-yl)-3H-imidazo[4,5-c]pyridin-2-yl)-1H-pyrazolo[3,4-b]pyridin-5-yl)pyridin-3-yl)methanamine] | 1090 nM | 48 nM |  |
| CC(C)C(=O)Nc1cncc(-c2cnc3[nH]nc(-c4nc5c(-c6ccsc6)cccc5[nH]4)c3c2)c1 [Compound 793, N-(5-(3-(4-(Thiophen-3-yl)-1H-benzo[d]imidazol-2-yl)-1H-pyrazolo[3,4-b]pyridin-5-yl)pyridin-3-yl)isobutyramide] |  | 16 nM |  |
| CN(C)Cc1cncc(-c2cnc3[nH]nc(-c4nc5c(-c6ccsc6)cccc5[nH]4)c3c2)c1 [Compound 797, N,N-Dimethyl-1-(5-(3-(4-(thiophen-3-yl)-1H-benzo[d]imidazol-2-yl)-1H-pyrazolo[3,4-b]pyridin-5-yl)pyridin-3-yl)methanamine] |  | 32 nM |  |
| c1cc(-c2ccsc2)c2nc(-c3n[nH]c4ncc(-c5cncc(CN6CCCCC6)c5)cc34)[nH]c2c1 [Compound 799, 5-(5-(Piperidin-1-ylmethyl)pyridin-3-yl)-3-(4-(thiophen-3-yl)-1H-benzo[d]imidazol-2-yl)-1H-pyrazolo[3,4-b]pyridine] |  | 82 nM |  |
| O=C(Nc1cncc(-c2cnc3[nH]nc(-c4nc5c(-c6ccsc6)cccc5[nH]4)c3c2)c1)C1CC1 [Compound 803, N-(5-(3-(4-(Thiophen-3-yl)-1H-benzo[d]imidazol-2-yl)-1H-pyrazolo[3,4-b]pyridin-5-yl)pyridin-3-yl)cyclopropanecarboxamide] |  | 17 nM |  |
| CC(C)(C)C(=O)Nc1cncc(-c2cnc3[nH]nc(-c4nc5c(-c6ccoc6)cccc5[nH]4)c3c2)c1 [Compound 818, N-(5-(3-(4-(Furan-3-yl)-1H-benzo[d]imidazol-2-yl)-1H-pyrazolo[3,4-b]pyridin-5-yl)pyridin-3-yl)pivalamide] |  | 50 nM |  |
| CCCC(=O)Nc1cncc(-c2cnc3[nH]nc(-c4nc5c(-c6ccoc6)cccc5[nH]4)c3c2)c1 [Compound 827, N-(5-(3-(4-(Furan-3-yl)-1H-benzo[d]imidazol-2-yl)-1H-pyrazolo[3,4-b]pyridin-5-yl)pyridin-3-yl)butyramide] |  | 63 nM |  |
| c1cncc(-c2cnc3[nH]nc(-c4nc5c(-c6cccs6)cccc5[nH]4)c3c2)c1 [Compound 888, 5-(Pyridin-3-yl)-3-(4-(thiophen-2-yl)-1H-benzo[d]imidazol-2-yl)-1H-pyrazolo[3,4-b]pyridine] |  | 12 nM |  |
| c1csc(-c2cccc3[nH]c(-c4n[nH]c5ncc(-c6cncc(CN7CCCC7)c6)cc45)nc23)c1 [Compound 898, 5-(5-(Pyrrolidin-1-ylmethyl)pyridin-3-yl)-3-(4-(thiophen-2-yl)-1H-benzo[d]imidazol-2-yl)-1H-pyrazolo[3,4-b]pyridine] |  | 120 nM |  |
| O=C1C(Cc2ccc(O)cc2)N2C(=O)CCN(C(=O)NCc3ccccc3)C2CN1Cc1cccc2ccccc12 (stereo not drawn) [ICG-001, reference compound] |  |  | 7000 nM |
